From patent EP3683219A1, “COMPOUND INHIBITING BUTYRYLCHOLINESTERASE” (Julius-Maximilians-Universität Würzburg, priority 2019, dated 2020)

Key:
hBChE [1] = molecular target: T1, hBChE (Homo sapiens, UniProt P06276); experiment: biochemical; format: biochemical; details: for plC50 ± SEM (hBChE) / IC50: enzyme activity measured after 20 min incubation; for IC50: read-out: IC50 hBChE; for Selectivity index (IC50 hAChE/IC50 hBChE): hAChE over hBChE
Procedure: (§1) For evaluation of enzyme inhibition, Ellman's colorimetric assay was conducted as described in Ellman, G. L., Arch. Biochem. Biophys 1958, 74, 443-450 and Ellman, G. L. et al., Biochem. Pharmacol. 1961, 7, 88-95. Therefor, 5,5'-dithiobis-(2-nitrobenzoic acid) (DTNB) solution, respective Cholinesterase (ChE) and inhibitor were incubated together and enzyme activity was measured after 20 min. The long incubation time was needed to allow the carbamate transfer between ChE and inhibitor.
(§2) The carbamate residue was altered systematically by changing residues in the terminal position of carbamate moiety and different flexible alkylene linkers were introduced. […] Nevertheless, it must be noted that IC50 values only serve as a first indicator of inhibitor affinity and selectivity. Due to the chemical reaction of carbamate transfer the enzyme inhibition is strongly time dependent. […]

hAChE = hAChE (Homo sapiens, UniProt P22303); experiment: Ellman's colorimetric assay, inhibition of hAChE; format: biochemical
Sequence of hAChE (P22303 32-614): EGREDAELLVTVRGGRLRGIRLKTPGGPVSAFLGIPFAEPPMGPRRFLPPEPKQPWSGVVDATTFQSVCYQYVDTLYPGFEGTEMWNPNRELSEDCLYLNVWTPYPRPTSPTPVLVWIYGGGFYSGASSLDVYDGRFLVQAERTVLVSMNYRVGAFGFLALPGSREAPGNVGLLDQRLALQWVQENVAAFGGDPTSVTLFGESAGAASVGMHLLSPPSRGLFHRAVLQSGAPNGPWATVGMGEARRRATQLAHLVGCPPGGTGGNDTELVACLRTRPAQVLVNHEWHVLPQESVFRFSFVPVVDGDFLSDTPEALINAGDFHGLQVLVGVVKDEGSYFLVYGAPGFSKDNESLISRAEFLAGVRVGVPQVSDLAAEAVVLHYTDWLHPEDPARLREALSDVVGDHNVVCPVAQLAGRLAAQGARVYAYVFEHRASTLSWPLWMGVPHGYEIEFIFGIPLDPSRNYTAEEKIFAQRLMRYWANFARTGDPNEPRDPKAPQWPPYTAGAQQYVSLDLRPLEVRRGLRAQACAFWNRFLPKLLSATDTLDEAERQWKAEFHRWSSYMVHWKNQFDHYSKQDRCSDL
Procedure: as §1, §2

hBChE [2] = molecular target: T1, hBChE; experiment: Carbamoylation kinetics on hBChE (time-dependent inhibition, Kc and k3); format: biochemical; details: for k3 [min^-1] hBChE: carbamoylation rate constant; for Kd: carbamoylation, pre-equilibrium constant
Source text: As carbamate based inhibitors (C-X) show a pseudo irreversible manner of binding, the IC50 values must be seen critically because two chemical reactions determine them: Carbamate (C) transfer onto the enzyme (E) and carbamate hydrolysis. So, the Kc values, k3 and k4 rate constants according to below formula were investigated for some representative compounds (c.f. Fig. 3 and Fig. 4). [formula]
The mechanism of enzyme inhibition can be divided into three steps: In a pre-equilibrium, the carbamate based inhibitor C-X is bound to the enzyme E and a complex (EC-X) is formed reversible and can be characterized with Kc. Then the carbamate C is transferred onto the enzyme E and binds covalently to form E-C with the rate constant k3 while carrier scaffold X is released. Then E-C is hydrolyzed and enzyme activity is recovered and the amine C' is released with the rate constant k4, also called decarbamoylation rate.
For the determination of Kc and k3 a similar experimental setup was used compared to the evaluation of IC50 values, whereas enzyme activity was measured at various time points after addition of inhibitor.
A = A0 ⋅e^(−kobs ⋅t) + A∞ [formula]
Plotting the enzyme activity (in %) against the incubation times, lead to nonlinear time-dependent inhibition curves for the respective inhibitor concentrations whereby kobs can be determined with an exponential fit correspondent to equation (I).
Furthermore, a hyperbolic curve is obtained, plotting the rate constant kobs against the inhibitor concentration [I], which is described by equation (II), with the substrate concentration [S] and the Michaelis-Menten constant KM. kobs = (k3 ⋅[I])/(KC ⋅(1+([S])/(KM)) + [I]) [formula]
This equation (II) can be rearranged to the reciprocal of kobs, to get a linear plot: (1)/(kobs) = (KC ⋅(1+([S])/(KM)))/(k3)⋅(1)/([I]) + (1)/(k3) [formula]
Since the substrate butyrylthiocholine iodide is not added directly to the enzyme and the inhibitor, but after the incubation of enzyme with inhibitor, [S] can be set to zero, leading to Michaelis-Menten like equation IV. (1)/(kobs) = (KC)/(k3)⋅(1)/([I]) + (1)/(k3) [formula]
Relating to the linear equation (IV), KC can be established from the slope and carbamoylation rate constant k3 from the y-intercept.
As a chemical reaction is taking place, Kc must be seen as a 'real' measure for quantification of enzyme inhibitor interactions. Due to the high costs in measurements on hBChE only some representative compounds were chosen to evaluate also in kinetic studies based on the results from IC50 measurements (table 3). Table 3. Kinetic values for carbamoylation on hBChE for selected representative compounds

hBChE [3] = molecular target: T1, hBChE; experiment: Decarbamoylation from hBChE, dilution experiments (recovery of enzyme activity, k4); format: biochemical; details: decarbamoylation rate, after 1 h incubation and 1:1000 dilution
Procedure: To further investigate the presence and nature of a peripheral binding site, also the hydrolysis of carbamate and the resulting release of the inhibitor from the enzyme was investigated by measuring the time dependent recovery of enzyme activity. To measure the decarbamoylation rate k4, dilution experiments were performed with hBChE following the procedure described in Sawatzky, E. et al., ChemMedChem 2016, 11, 1540-1550 and in Bartolucci, C. et al., Biochem. J. 2012, 444, 269-277. A high concentration of enzyme and inhibitor where incubated for 1 h. The concentration of inhibitor was chosen, such that > 85% of hBChE was inhibited through carbamate transfer. Then the mixture was diluted with buffer 1:1000 to a concentration at which the enzyme is not further carbamoylated. Due to the hydrolysis and release of the carbamate from the catalytic active serine enzyme activity was recovered slowly. This regeneration of the enzyme was monitored at different time points after the dilution. […] A = (1−e^(k4 ⋅t))⋅(1−A0) + A0 [formula] Table 4. Kinetic values for decarbamoylation from hBChE of selected compounds

[4] = test system: Aβ25-35-induced spontaneous alternation deficits; experiment: Spontaneous alternation test in the Y-maze, Aβ25-35-injected mice; format: in vivo, male Swiss mice; details: for prevention of the effects of Aβ injection, both behavioral parameters: dose of 1 or 3 mg/kg ip, Y-maze and passive avoidance; for dose active on Aβ25-35-induced spontaneous alternation deficits: ip o.d. day 1 to 7, Y-maze day 8
Procedure: 2013, 38, pages 1706-1723.
AD-like cognitive dysfunctions were induced in male Swiss mice, 6 weeks old, weighing 31-36 g by intracerebroventricular (icv) injection of the oligomerized Aβ25-35 peptide into the mouse brain on day 1.
Compounds were weighed, dissolved in pure DMSO at a concentration of 1 mg/ml and diluted into final test concentrations with saline. The final percentage of DMSO in saline was 60% for all compounds. Vehicle solution used for control groups was 60% DMSO in saline. Compounds were injected intraperitoneally (ip) from day 1 to 7 and behavioral studies were conducted between day 8 and 10. Spatial working memory was evaluated using a spontaneous alternation test in a Y-maze on day 8. The Y-maze is made of grey polyvinylchloride. Each arm is 40 cm long, 13 cm high, 3 cm wide at the bottom, 10 cm wide at the top, and converging at an equal angle. Each mouse is placed at the end of one arm and allowed to explore the maze freely for 8 min. The sequence of arm entries (including possible returns into the same arm) was checked visually and noted down. If the mouse enters all three arms on consecutive occasion, this is defined as an alternation. Therefore, the total number of arm entries minus two is also the maximum number of alternations. The percentage of alternation was calculated as (actual alternations / maximum alternations) x 100. Parameters for the evaluation of behavior are given as the percentage of alternation (memory index) and a total number of arm entries (exploration index).
Figs. 7a-h show the effect of the compounds on Aβ25-35-induced spontaneous alternation deficits in mice. […] Figs. 7a, c, e, g: spontaneous alternation performance; Figs. 7b, d, f, h: number of arm entries in the Y-maze test performed at day 8.

[5] = test system: Aβ25-35-induced passive avoidance impairments; experiment: Step-through passive avoidance test, Aβ25-35-injected mice; format: in vivo, male Swiss mice; details: 0.3-3 mg/kg ip o.d. day 1 to 7; retention day 10

T1 sequence (P06276 29-602): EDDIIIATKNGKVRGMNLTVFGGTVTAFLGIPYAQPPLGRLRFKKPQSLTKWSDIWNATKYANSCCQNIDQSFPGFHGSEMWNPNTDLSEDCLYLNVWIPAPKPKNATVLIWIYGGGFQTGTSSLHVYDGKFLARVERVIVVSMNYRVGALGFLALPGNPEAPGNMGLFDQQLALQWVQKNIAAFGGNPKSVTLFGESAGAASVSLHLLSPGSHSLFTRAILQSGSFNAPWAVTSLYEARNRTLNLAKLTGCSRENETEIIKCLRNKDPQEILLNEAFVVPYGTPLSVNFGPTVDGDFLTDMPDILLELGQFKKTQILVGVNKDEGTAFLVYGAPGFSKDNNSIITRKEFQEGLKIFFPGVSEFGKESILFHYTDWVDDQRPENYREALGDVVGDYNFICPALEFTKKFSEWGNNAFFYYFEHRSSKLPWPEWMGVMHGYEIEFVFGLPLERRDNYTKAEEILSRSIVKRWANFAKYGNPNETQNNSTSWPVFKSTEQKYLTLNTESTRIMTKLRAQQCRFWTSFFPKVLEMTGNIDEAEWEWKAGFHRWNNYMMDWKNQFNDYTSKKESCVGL

SMILES	plC50 ± SEM (hBChE) (hBChE [1])	IC50 (hBChE [1])	Selectivity index (IC50 hAChE/IC50 hBChE) (hBChE [1])	inhibition at 10 µM (hAChE; 10 µM)	Kc values (hBChE), in words (hBChE [2])	k3 [min^-1] hBChE (hBChE [2])	Kd (hBChE [2])	k4 (hBChE [3])	prevention of the effects of Aβ injection, both behavioral parameters [4]	dose active on Aβ25-35-induced spontaneous alternation deficits [4]	effect on Aβ25-35-induced passive avoidance deficits (step-through latency, retention) [5]	fold lower activity than heptyl carbamate 7 (IC50 hBChE) (hBChE [1]; compared with compound 7)	inhibition at 100 µM (hAChE; 100 µM, read-out: inhibition of hAChE)
CN1c2ccc(OC(=O)NCCCCCCN3CCc4ccccc4C3)cc2CN2CCc3ccccc3C21 (stereo not shown) [Compound 19j]	7.57 ± 0.05	26.7 nM	>1000	9%	one-digit nanomolar range	0.18 ± 0.02 min⁻¹	3.6 ± 2.9 nM	0.025 ± 0.001 h⁻¹	fully prevented the effects of Aβ injection	1 mg/kg ip	effective at the 3 doses tested	–	–
CN1c2ccc(OC(=O)NCCCCCCN3CCOCC3)cc2CN2CCc3ccccc3C21 (stereo not shown) [Compound 19d]	7.31 ± 0.02	49.3 nM	>1000	–	–	0.16 ± 0.02 min⁻¹	202 ± 55 nM	0.042 ± 0.004 h⁻¹	fully prevented the effects of Aβ injection	0.3 mg/kg ip	effective at the 3 doses tested	approximately 10 fold	45%
